What was measured:
[1] = system: senescent lung cells from 23-month-old mice; assay: Cell viability, mouse lung fibroblasts of old and young mice; format: cell-based; conditions: senescent lung cells from 23-month-old mice vs non-senescent lung cells from young mice; increasing doses
Method: (§1) Mouse embryonic fibroblasts (MEFs) were isolated from E13.5 embryos as described previously (Zhao et al., Cell Stem Cell 23, 31-45 e37([…])). Newborn mouse skin fibroblasts (NBFs) were isolated from the skin of day 1-3 newborn mice. Adult mouse lung fibroblasts were isolated from 2-month-old and 23-month-old mice. Briefly, mouse embryonic tissues, skin and lung were obtained from described donor mice. Then, these tissues were minced with forceps and incubated in 2 mg/ml collagenase IV (Gibco) for 2-4 hours at 37° C. After enzyme treatment, cells were collected by centrifugation and resuspended in high-glucose DMEM (Gibco) supplemented with 10% fetal bovine serum (FBS) and 1% penicillin-streptomycin (Gibco). The three types of mouse primary cells were all cultured in a humidified incubator at 37° C. and 5% CO2.
(§2) To test the viability of senescent and non-senescent cells treated with SSK1, cells were stained with a mixture of Hoechst 33342 and propidium iodide (PI) (CA1120, Solarbio) to distinguish living and dead cells. After treatment with the small molecules, the cell culture medium was removed, and the cells were washed once with PBS. […] The plate was incubated at 4° C. for 30 min and observed on a fluorescence microscope or automatic cell imaging system. Viable cells were quantified using a MD Image Xpress Micro XL (Molecular Devices).

[2] = system: SA-β-gal-positive senescent cells in bleomycin-injured lungs; assay: Bleomycin-induced lung injury (lung fibrosis and senescence) mouse model; format: in vivo, mice
Method: All drugs were mixed in 90% PBS, 5% Tween-80 (P1754, Sigma), and 5% polyethylene glycol (PEG) (81172, Sigma) and administered to mice by intraperitoneal (i.p.) injection. For treating bleomycin-injured young mice, SSK1 (0.5 mg/kg) or vehicle were given consecutive two days every week for five weeks. For old mice (20-month-old), SSK1 (0.5 mg/kg), gemcitabine (0.5 mg/kg) or vehicle were administrated for continued 3 days every two weeks. Gemcitabine was purchased from MCE.
Bleomycin was purchased from Selleck. To induce lung senescence and fibrosis, young male and female mice (3-month-old) were subjected to transtracheal injection of bleomycin (1 mg/kg) as previously reported (Bivas-Benita et al., Eur J Pharm Biopharm 61, 214-218(2005))
Cultured cells were washed once with PBS and fixed in β-galactosidase staining fix solution for 15 min at room temperature. Cells were then washed three times with PBS and incubated with β-galactosidase staining solution (Beyotime Biotechnology) for 16-20 hours at 37° C. For 12-well plates, 1 ml of β-galactosidase staining solution was added to each well. The plate was sealed with Parafilm to prevent evaporation of the staining medium. After the overnight incubation, cells were washed with PBS and observed under a bright field microscope. For β-galactosidase staining of frozen sections, the frozen sections were dried at 37° C. for 20-30 min and then fixed in β-galactosidase staining fix solution for 15 min at room temperature. The frozen sections were washed three times with PBS and incubated with β-galactosidase staining solution overnight at 37° C. After completion of β-galactosidase staining, the sections were stained with eosin for 1-2 min, rinsed under running water for 1 min, differentiated in 1% acid alcohol for 10-20 sec, and washed again under running water for 1 min. Sections were dehydrated in increasing concentrations of alcohols and cleared in xylene. Excess xylene was drained and a coverslip was placed over the section. After drying, the sample was observed under a microscope.
Lung, liver, and kidney frozen sections stained with SA-β-Gal were quantified by ImageJ software (NIH) to measure the SA-β-Gal positive area. The total area was quantified by eosin positive area with ImageJ software (NIH). The relative positive SA-β-Gal positive cells were calculated with the SA-β-Gal positive area divided by the total area. Each mouse was measured with 3-5 regions.
For detecting the p21 expression in lungs, we conducted the immunohistochemical staining experiment for p21 with an immunohistochemical staining kit (SP-9000, ZSGB-BIO). Freshly isolated tissues were fixed by 10% formalin for one day and then transferred in 20% formalin for another day. The tissue blocks were then dehydrated and embedded in paraffin. The embedded tissues were cut and affixed on slides. Before immunohistochemical staining, the slides were deparaffinized, rehydrated, and performed antigen retrieve by high pressure and high temperature in Tris/EDTA pH 8.0 buffer solution. Immunohistochemical staining was conducted according to the manufacturers' instructions.
Total RNA was isolated using the Direct-zol RNA MiniPrep Kit (Zymo Research, R2072). […] Data were analyzed using the 2^(−ΔΔCt) method. […]

senescent cells = assay: Flow cytometry of apoptosis (annexin V / propidium iodide) in senescent cells; format: cell-based; conditions: SSK1-treated senescent cells; after 36 hours of treatment
Method: Fibroblasts were digested into single cell suspensions by incubation with 0.25% trypsin-EDTA (Invitrogen) at 37° C. for 3-5 min or with accutase at 37° C. for 10 min. Cells were then stained with FITC annexin V and propidium iodide (PI) according to the manufacturer's protocol (FITC Annexin V Apoptosis Detection Kit I, BD Pharmingen™). For chondrocytes Annexin V/7-AAD analysis, the trypsinized live chondrocytes and floating cells were collected, centrifuged and washed with PBS. Cells were stained with the Annexin V Apoptosis Detection Kit (Biolegend, 640934) according to the manufacturer's instruction. Before the flow cytometric analysis, the precision count beads (Biolegend, 424902) were added to count the absolute live cell numbers. Flow cytometry was performed within one hour on an Aria III (BD Biosciences) or FACSVerse (BD Biosciences). Data were analyzed using FlowJo software (FlowJo LLC).

[3] = system: primary mouse fibroblasts and their replication-induced senescent counterparts; assay: Cell viability testing, senescent vs non-senescent primary mouse fibroblasts; format: cell-based; conditions: increasing doses; senescent vs non-senescent cells
Method: as §1
To avoid replication-induced senescent cells, low-passage proliferative NBFs (<3 passages), MEFs (<3 passages), mouse lung fibroblasts (<3 passages), HEFs (<10 passages), and HUVECs (<6 passages) were used as normal controls. To induce cell quiescence, MEFs were cultured in DMEM without FBS for 2 days.
For replication-induced senescence, cells were passaged until they lost the ability to proliferate and became senescent. NBFs were used as senescent cells after approximately 8-9 passages or 12 population doublings. HEFs were used after approximately 35 passages or 50 population doublings. HUVECs were senescent after approximately 18 passages or 24 population doublings.
as §2

SMILES: CC(=O)OCC1O[C@@H](Oc2ccc(COC(=O)Nc3ccn([C@@H]4O[C@H](CO)C(O)C4(F)F)c(=O)n3)cc2[N+](=O)[O-])C(OC(C)=O)C(OC(C)=O)[C@H]1OC(C)=O (some centres unmarked) [SSK1]
- Selective elimination of senescent cells (viable cells) [1]: specifically eliminated these senescent cells
- Decline in physical functions (treadmill exhaustion distance) ([2]; SSK1 0.5 mg/kg i.p.): attenuated
- Lung fibrosis ([2]; SSK1 0.5 mg/kg i.p.): attenuated
- p21-positive cells and other senescence-associated markers in lungs (immunohistochemistry, RT-qPCR) ([2]; SSK1 0.5 mg/kg i.p.): decreased p21-positive cells and other senescence-associated markers
- Decrease of SA-β-gal-positive cells in lungs vs vehicle ([2]; SSK1 0.5 mg/kg i.p., five weeks): 3.8 fold
- β-gal positive macrophages in injured lungs ([2]; SSK1 0.5 mg/kg, xCell analysis of RNA-seq, FIG. 6C): reduction of β-gal positive macrophages was observed
- Apoptosis (annexin V / PI) (senescent cells): induced apoptosis in senescent cells
- Selective killing of senescent cells (viable cells) [3]: selectively and potently eliminated SA-β-gal-positive senescent cells over non-senescent cells with a wide therapeutic window

Reference: US12576155B2, “Senolytic and antiinflammatory prodrugs and methods of use thereof” (priority 2019, dated 2026)
